Assay results published in patent publication US5204355A, “15-nitro-2β, 3β-dihydro- and 15-nitro-2β,3β,6,7-tetrahydrotabersonine derivatives, pharmaceutical compositions containing them and process for preparing same” (Richter Gedeon Vegyeszeti Gyar RT., priority 1990, dated 1993).

Legend:
Asphyxial anoxia = experiment: Antihypoxic effect on mice (asphyxial anoxia); assay type: in vivo, male mice (CFLP LATI); settings: for ED50: Mus musculus, po, 1 hour before, protected = survival 30 % longer than control
Method: The antianoxic action of the target compounds was studied by using the following test method.
ANTIHYPOXIC EFFECT ON MICE
Male mice (CFLP LATI) weighing 24 to 26 g were used in these experiments. The test compounds were orally administered in a volume of 10 ml/kg one hour before starting the experiment.
The animals were orally treated with various doses of the test compounds after starving for 16 hours. One hour following the treatment the animals were placed in air-tight glass cylinders of 100 ml volume and the survival time of the animals was measured. Each group consisted of 10 animals. Animals, surviving longer by 30 % than the average survival time of the control group treated with placebo, were considered to be protected. The ED50 value (the dose effective in 50 % of the animals) was calculated from the percentage of surviving animals by using probit analysis.

[1] = tested on: TET-induced increase in the brain water content; experiment: TET-induced cerebral edema in rats (brain water content, protective effect); assay type: in vivo, inbred male Hannover Wistar rats; settings: for Brain water content % ± S.E.M. / Protective effect %: 5 days TET 2.5 mg/kg; for protective action against TET-induced edema (in words): result in words
Excerpt: The inhibitory effect on the cerebral edema of the compounds of formula (I) was studied by using the method of P. Linnee et al. "L'oedeme cerebral induit chez 1e rat par le triethyletain. Interet et limites comme methode d'etude de antioedemateux cerebraux", Ann. Pharmaceutiques francaises, 42, 431 (1984)) as described hereinafter in detail.
Inbred male Hannover Wistar rats weighing 180 to 200 g were used in these examinations. Before starting and during the treatment the animals were kept on normal laboratory diet and received tap water ad libitum.
The cerebral edema was induced by the daily administration of 2.5 mg/kg of triethyl-tin chloride (abbreviated hereinafter as TET) for 5 days. TET (Merck-Schuchardt, Darmstadt, Germany) was dissolved in distilled water under stirring and the stirring was continued during the treatment, too. TET was orally administered to the animals every day at 7 o'clock a.m.
Both the reference drugs and test compounds were homogenized in a 0.5 % carboxymethylcellulose solution by using an Ultra Turrax mixer and stirring was continued also during the administration. The first dose of the reference and test compounds, respectively, was orally 5 given following the TET treatment by 1 or 6 hours, respectively. The administration was always carried out in a volume of 0.5 ml/100 g of body-weight. Each group consisted of 7 animals; the control group received only the solvent of TET (distilled water) and the vehicle used for the compounds (0.5% carboxymethylcellulose solution) in an identical volume and at the same time as described above.
The animals were decapitated on the 5th day of the treatment at 2 hours after the last treatment (with the test compound). The whole brain was rapidly removed, washed with cold 0.9 % saline, the moisture was removed by a filter paper, the brains were placed on aluminum foils previously weighed and the wet weights of the brains (together with the aluminum foil of known weight) were determined with an accuracy of one tenth mg on an electric balance (Precisa 80/A, PAG Oerlikon AG, Zurich, Switzerland).
Subsequently the brains were dried at 90° C. for 92 hours, then the gross dry weight (dry weight of the brain together with the weight of the aluminum foil) was again measured. With the knowledge of the dry and wet weights, the brain water content, i.e. the effect of treatment by the compound was calculated and expressed in the percentage of the protective effect by using the following formula: [formula] wherein (TET-Ko) means the percentage of average brain water content of the animals treated with TET and vehicle;
(TET-V) means the percentage of average brain water content of the animals treated with TET and the compound; and
(Veh-Ko) means the percentage of average brain water content of the animals treated with distilled water and vehicle.
The deviations of changes in the brain water content (and dry weight) were analyzed by the means of Student's "t" trial.

Compound: CC[C@]12CCCN3CC[C@]4(C(=C(C(=O)OC)C1)Nc1ccc([N+](=O)[O-])cc14)[C@@H]32 [compound 1700374, 15-nitro-6,7-dihydrotabersonine]
- ED50 (Asphyxial anoxia): > 100 mg/kg
- protection against cerebral hypoxia (in words) (Asphyxial anoxia; result in words, up to 100 mg/kg p.o.): did not provide any protection

Compound: CC[C@]12C=CCN3CC[C@@]4(c5cc([N+](=O)[O-])ccc5N[C@H]4[C@@H](C(=O)OC)C1)[C@@H]32 [compound 1703594, methyl-15-nitro-6,7-didehydro-(2β, 5α, 12β, 19α)-aspidospermidine-(15-nitro-2β, 3β-dihydrotabersonine)]
- Brain water content % ± S.E.M. ([1]; Experiment 4, 50 μmol/kg oral): 78.61%
- Protective effect % ([1]; Experiment 4, 50 μmol/kg oral): 82.9%
- ED50 (Asphyxial anoxia): 56.3 mg/kg

Compound: CC[C@]12CCCN3CC[C@@]4(c5cc([N+](=O)[O-])ccc5N[C@H]4[C@@H](C(=O)OC)C1)[C@@H]32 [compound 1704369, methyl 15-nitro-(2β, 5α, 12β, 19α)-aspidospermidine-3α-carboxylate]
- protection against the edema-inducing effect of TET ([1]; 100 μmol/kg oral, summary of experiments in text): 100%
- Brain water content % ± S.E.M. ([1]; Experiment 1, 100 μmol/kg oral): 78.09 ± 0.09%
- Protective effect % ([1]; Experiment 1, 100 μmol/kg oral): 103.6%
- Brain water content % ± S.E.M. ([1]; Experiment 2, 100 μmol/kg oral): 78.15 ± 0.05%
- Protective effect % ([1]; Experiment 2, 100 μmol/kg oral): 99.3%
- Brain water content % ± S.E.M. ([1]; Experiment 4, 50 μmol/kg oral): 78.30%
- Protective effect % ([1]; Experiment 4, 50 μmol/kg oral): 105.9%
- protective action against TET-induced edema (in words) [1]: even more effective than the structurally similar vincamine

Compound: CCOC(=O)[C@H]1C[C@]2(CC)CCCN3CC[C@@]4(c5cc([N+](=O)[O-])ccc5N[C@@H]14)[C@@H]32 [compound 1708009, ethyl 15-nitro-(2β, 5α, 12β, 19α)-aspidospermidine-3α-carboxylate]
- Brain water content % ± S.E.M. ([1]; Experiment 3, 50 μmol/kg oral): 79.44 ± 0.11%
- Protective effect % ([1]; Experiment 3, 50 μmol/kg oral): 32.5%
- protective action against TET-induced edema (in words) [1]: similarly effective
- ED50 (Asphyxial anoxia): 62 mg/kg

Compound: COC1=C(OC)C(=O)C(CCCCCCCCCCO)=C(C)C1=O [idebenone, 5,6-dimethoxy-2-(10-hydroxydecyl)-3-methyl-p-benzoquinone]
- Brain water content % ± S.E.M. ([1]; Experiment 3, 100 μmol/kg oral): 79.75 ± 0.14%
- Protective effect % ([1]; Experiment 3, 100 μmol/kg oral): 14.0%
- Brain water content % ± S.E.M. ([1]; Experiment 6, 100 μmol/kg oral): 80.22 ± 0.16%
- Protective effect % ([1]; Experiment 6, 100 μmol/kg oral): 16.9%
- protective action against TET-induced edema (in words) [1]: did not produce any practically useful protective action

Compound: NC(=O)CN1CCCC1=O [piracetam, 2-oxo-1-pyrrolidineacetic acid amide]
- Brain water content % ± S.E.M. ([1]; Experiment 5, 100 μmol/kg oral): 80.04 ± 0.28%

Compound: CC[C@]12CCCN3CCc4c(n(c5ccccc45)[C@@](O)(C(=O)OC)C1)[C@@H]32 [vincamine, (+) -14β-hydroxy-14α-methoxycarbonyl-14, 15- -dihydroeburnamenine]
- Brain water content % ± S.E.M. ([1]; Experiment 1, 100 μmol/kg oral): 78.83 ± 0.15%
- Protective effect % ([1]; Experiment 1, 100 μmol/kg oral): 64.9%
- Brain water content % ± S.E.M. ([1]; Experiment 2, 100 μmol/kg oral): 78.70 ± 0.13%
- Protective effect % ([1]; Experiment 2, 100 μmol/kg oral): 59.6%
- Brain water content % ± S.E.M. ([1]; Experiment 4, 50 μmol/kg oral): 79.31%
- Protective effect % ([1]; Experiment 4, 50 μmol/kg oral): 31.6%

Compound: (5'α, 10α)-9, 10-dihydro-12'-hydroxy- 2'-methylethyl)-5'-benzylergotamine-3+, 6', 18-trione monomethanesulfonate [hydergine]
- Brain water content % ± S.E.M. ([1]; Experiment 6, 30 mg/kg oral): 79.97 ± 0.38%
- Protective effect % ([1]; Experiment 6, 30 mg/kg oral): 25.6%
- protective action against TET-induced edema (in words) [1]: did not produce any practically useful protective action
